Publication PMC11277489, “Novel Piperazine Derivatives of Vindoline as Anticancer Agents” (International Journal of Molecular Sciences, 2024)

Legend:
HS 578T = test: NCI60 one-dose screen (10 μM), Breast Cancer; assay type: cell-based; details: Homo sapiens, Hs-578T, read-out: Growth percent rate
OVCAR-3 [1] = test: NCI60 five-dose screen, Ovarian Cancer; assay type: cell-based; details: Homo sapiens, OVCAR-3
NCI-H226 [2] = test: NCI60 one-dose screen (10 μM), Non-small Cell Lung Cancer; assay type: cell-based; details: Homo sapiens, NCI-H226, read-out: Growth percent rate
UO-31 = test: NCI60 one-dose screen (10 μM), Renal Cancer; assay type: cell-based; details: Homo sapiens, UO-31, read-out: Growth percent rate
SF-539 = test: NCI60 five-dose screen, CNS Cancer; assay type: cell-based; details: Homo sapiens, SF-539
NCI/ADR-RES [3] = test: NCI60 one-dose screen (10 μM), Ovarian Cancer; assay type: cell-based; details: Homo sapiens, read-out: Growth percent rate
OVCAR-4 = test: NCI60 five-dose screen, Ovarian Cancer; assay type: cell-based; details: Homo sapiens, OVCAR-4
HOP-62 = test: NCI60 five-dose screen, Non-small Cell Lung Cancer; assay type: cell-based; details: Homo sapiens, HOP-62
ACHN = test: NCI60 five-dose screen, Renal Cancer; assay type: cell-based; details: Homo sapiens
U251 = test: NCI60 five-dose screen, CNS Cancer; assay type: cell-based; details: Homo sapiens, U-251
NCI-H522 [4] = test: NCI60 five-dose screen, Non-small Cell Lung Cancer; assay type: cell-based; details: Homo sapiens, NCI-H522
SK-MEL-2 = test: NCI60 five-dose screen, Melanoma; assay type: cell-based; details: Homo sapiens, SK-MEL-2
EKVX = test: NCI60 one-dose screen (10 μM), Non-small Cell Lung Cancer; assay type: cell-based; details: Homo sapiens, read-out: Growth percent rate
HL-60(TB) = test: NCI60 five-dose screen, Leukemia; assay type: cell-based; details: Homo sapiens, HL-60
PC-3 [5] = test: NCI60 one-dose screen (10 μM), Prostate Cancer; assay type: cell-based; details: Homo sapiens, PC-3, read-out: Growth percent rate
NCI/ADR-RES [6] = test: NCI60 five-dose screen, Ovarian Cancer; assay type: cell-based; details: Homo sapiens
MDA-MB-231/ATCC = test: NCI60 one-dose screen (10 μM), Breast Cancer; assay type: cell-based, human; details: Homo sapiens, MDA-MB-231, read-out: Growth percent rate
BT-549 [7] = test: NCI60 five-dose screen, Breast Cancer; assay type: cell-based; details: Homo sapiens, BT-549
UACC-62 = test: NCI60 one-dose screen (10 μM), Melanoma; assay type: cell-based; details: Homo sapiens, UACC-62, read-out: Growth percent rate
K-562 = test: NCI60 five-dose screen, Leukemia; assay type: cell-based; details: Homo sapiens, K562
T-47D [8] = test: NCI60 five-dose screen, Breast Cancer; assay type: cell-based; details: Homo sapiens, T47D
NCI-H522 [9] = test: NCI60 one-dose screen (10 μM), Non-small Cell Lung Cancer; assay type: cell-based; details: Homo sapiens, NCI-H522, read-out: Growth percent rate
SK-MEL-5 = test: NCI60 five-dose screen, Melanoma; assay type: cell-based; details: Homo sapiens, SK-MEL-5
HCC-2998 = test: NCI60 one-dose screen (10 μM), Colon Cancer; assay type: cell-based; details: Homo sapiens, HCC 2998, read-out: Growth percent rate
T-47D [10] = test: NCI60 one-dose screen (10 μM), Breast Cancer; assay type: cell-based; details: Homo sapiens, T47D, read-out: Growth percent rate
A549/ATCC = test: NCI60 five-dose screen, Non-small Cell Lung Cancer; assay type: cell-based; details: Homo sapiens, A549
SN12C = test: NCI60 one-dose screen (10 μM), Renal Cancer; assay type: cell-based; details: Homo sapiens, read-out: Growth percent rate
HCT-116 = test: NCI60 one-dose screen (10 μM), Colon Cancer; assay type: cell-based; details: Homo sapiens, HCT-116, read-out: Growth percent rate
SNB-75 = test: NCI60 five-dose screen, CNS Cancer; assay type: cell-based; details: Homo sapiens, SNB-75
BT-549 [11] = test: NCI60 one-dose screen (10 μM), Breast Cancer; assay type: cell-based; details: Homo sapiens, BT-549, read-out: Growth percent rate
A498 = test: NCI60 five-dose screen, Renal Cancer; assay type: cell-based; details: Homo sapiens, A498
NCI-H226 [12] = test: NCI60 five-dose screen, Non-small Cell Lung Cancer; assay type: cell-based; details: Homo sapiens, NCI-H226
OVCAR-3 [13] = test: NCI60 one-dose screen (10 μM), Ovarian Cancer; assay type: cell-based; details: Homo sapiens, OVCAR-3, read-out: Growth percent rate
OVCAR-5 = test: NCI60 one-dose screen (10 μM), Ovarian Cancer; assay type: cell-based; details: Homo sapiens, OVCAR-5, read-out: Growth percent rate
NCI-H23 = test: NCI60 five-dose screen, Non-small Cell Lung Cancer; assay type: cell-based; details: Homo sapiens, NCI-H23
SF-268 = test: NCI60 five-dose screen, CNS Cancer; assay type: cell-based; details: Homo sapiens, SF-268
HCT-15 = test: NCI60 five-dose screen, Colon Cancer; assay type: cell-based; details: Homo sapiens, HCT-15
SW-620 = test: NCI60 five-dose screen, Colon Cancer; assay type: cell-based; details: Homo sapiens, SW-620
PC-3 [14] = test: NCI60 five-dose screen, Prostate Cancer; assay type: cell-based; details: Homo sapiens, PC-3
NCI-H460 = test: NCI60 five-dose screen, Non-small Cell Lung Cancer; assay type: cell-based; details: Homo sapiens, NCI-H460
SK-OV-3 = test: NCI60 one-dose screen (10 μM), Ovarian Cancer; assay type: cell-based; details: Homo sapiens, SK-OV-3, read-out: Growth percent rate
SR = test: NCI60 one-dose screen (10 μM), Leukemia; assay type: cell-based; details: Homo sapiens, read-out: Growth percent rate
UACC-257 = test: NCI60 five-dose screen, Melanoma; assay type: cell-based; details: Homo sapiens, UACC-257
LOX IMVI = test: NCI60 five-dose screen, Melanoma; assay type: cell-based; details: Homo sapiens

CC[C@]12C=CCN3CC[C@@]4(c5ccc(OC)cc5N(C)[C@H]4[C@@](O)(C(=O)OC)[C@@H]1OC(=O)CCCN1CCN(C(c4ccc(F)cc4)c4ccc(F)cc4)CC1)[C@@H]32 [Compound 25]
activity at 10 µM (HS 578T): -60% | GI50 (OVCAR-3 [1]): 1740 nM | activity at 10 µM (NCI-H226 [2]): -74.8% | activity at 10 µM (UO-31): -97.8% | GI50 (SF-539): 1660 nM | activity at 10 µM (NCI/ADR-RES [3]): -80.8% | GI50 (OVCAR-4): 1950 nM | GI50 (HOP-62): 1620 nM | GI50 (ACHN): 2090 nM | GI50 (U251): 1550 nM | GI50 (NCI-H522 [4]): 1700 nM | GI50 (SK-MEL-2): 2400 nM | activity at 10 µM (EKVX): -89.8% | GI50 (HL-60(TB)): 1550 nM | activity at 10 µM (PC-3 [5]): -72.3% | GI50 (NCI/ADR-RES [6]): 1740 nM | activity at 10 µM (MDA-MB-231/ATCC): -94% | GI50 (BT-549 [7]): 1780 nM | activity at 10 µM (UACC-62): -92.5% | GI50 (K-562): 1910 nM | GI50 (T-47D [8]): 1660 nM | activity at 10 µM (NCI-H522 [9]): -88.2% | GI50 (SK-MEL-5): 1550 nM | activity at 10 µM (HCC-2998): -97.2% | activity at 10 µM (T-47D [10]): -64.6% | GI50 (A549/ATCC): 2630 nM | activity at 10 µM (SN12C): -95% | activity at 10 µM (HCT-116): -98.6% | GI50 (SNB-75): 5.01 µM | activity at 10 µM (BT-549 [11]): -92.4% | GI50 (A498): 5.25 µM | GI50 (NCI-H226 [12]): 2040 nM | activity at 10 µM (OVCAR-3 [13]): -83% | activity at 10 µM (OVCAR-5): -92% | GI50 (NCI-H23): 1910 nM | GI50 (SF-268): 1700 nM | GI50 (HCT-15): 1700 nM | GI50 (SW-620): 1620 nM | GI50 (PC-3 [14]): 1510 nM | GI50 (NCI-H460): 1780 nM | activity at 10 µM (SK-OV-3): -72.5% | activity at 10 µM (SR): -43.6% | GI50 (UACC-257): 1740 nM | GI50 (LOX IMVI): 1740 nM
